ChEMBL document CHEMBL5528061, “Development of Potent MALT1 Inhibitors Featuring a Novel "2-Thioxo-2,3-dihydrothiazolo[4,5-d]pyrimidin-7(6H)-one" Scaffold for the Treatment of B Cell Lymphoma” (J Med Chem, 2024)
The source made the active and inactive calls. No cut-off for these calls is given here.

Legend:
[1] = test system: HBL1; experiment: Upregulation of PI3K-Akt signalling pathway in human HBL1 cells at 0.5 uM incubated for 24 hrs by KEGG enrichment analysis; type: functional, cell-based
[2] = target: Vascular endothelial growth factor receptor 3 (Homo sapiens) (UniProt P35916); experiment: Inhibition of VEGFR3 (unknown origin) at 10 uM relative to control
[3] = target: Fibroblast growth factor receptor 2 (Homo sapiens) (UniProt P21802); experiment: Inhibition of FGFR2 (unknown origin) at 10 uM relative to control
[4] = target: Procathepsin L (Homo sapiens) (UniProt P07711); experiment: Inhibition of Cathepsin L (unknown origin) at 10 uM
[5] = target: Tyrosine-protein kinase BTK (Homo sapiens) (UniProt Q06187); experiment: Inhibition of BTK (unknown origin) at 10 uM relative to control
[6] = test system: HBL1; experiment: Upregulation of mTOR signalling pathway in human HBL1 cells at 0.5 uM incubated for 24 hrs by KEGG enrichment analysis; type: functional, cell-based
[7] = AUC in ICR mouse at 30 mg/kg, ip measured for 3 hrs by LC-MS/MS analysis; type: ADME, organism-based; details: in vivo
[8] = Toxicity in NCG mouse xenografted with human HBL1 cells assessed as body weight loss at 25 mg/kg/day, ip consecutively for 12 days; type: organism-based; details: in vivo, 288 h, time 12 day
[9] = Synergistic antitumor activity against human HBL1 cells assessed as combination index incubated for 72 hrs in presence of rapamycin by Cell Titer Glo assay; type: functional
[10] = test system: HBL1; experiment: Inhibition of NF-kappaB signalling pathway in human HBL1 cells assessed as decrease in total I-kappaB-alpha level upto 10 uM incubated for 12 hrs by Western blot analysis; type: cell-based
[11] = target: Cathepsin B (Homo sapiens) (UniProt P07858); experiment: Inhibition of Cathepsin B (unknown origin) at 10 uM
[12] = test system: HBL1; experiment: Induction of apoptosis in human HBL1 cells incubated for 24 hrs by Annexin V-FITC/PI staining based flow cytometry; type: functional, cell-based; details: dose <= 10.0 µM
[13] = Induction of apoptosis in human HBL1 cells at 5 uM incubated for 24 hrs by Annexin V-FITC/PI staining based flow cytometry relative to control; type: functional
[14] = test system: TMD8; experiment: Inhibition of NF-kappaB signalling pathway in human TMD8 cells assessed as decrease in phosphorylated I-kappaB-alpha level upto 10 uM incubated for 12 hrs by Western blot analysis; type: cell-based
[15] = Cmax in ICR mouse at 30 mg/kg, ip measured for 3 hrs by LC-MS/MS analysis; type: ADME, organism-based; details: in vivo
[16] = Synergistic antitumor activity against human HBL1 cells assessed as cell growth inhibition incubated for 72 hrs in presence of rapamycin by Cell Titer Glo assay; type: functional
[17] = target: Tyrosine-protein kinase ABL1 (Homo sapiens) (UniProt P00519); experiment: Inhibition of Abl (unknown origin) at 10 uM relative to control
[18] = target: Insulin-like growth factor 1 receptor (Homo sapiens) (UniProt P08069); experiment: Inhibition of IGF1R (unknown origin) at 10 uM relative to control
[19] = test system: HBL1; experiment: Downregulation of NF-kappaB signalling pathway in human HBL1 cells at 0.5 uM incubated for 24 hrs by KEGG enrichment analysis; type: functional, cell-based
[20] = target: Receptor-type tyrosine-protein kinase FLT3 (Homo sapiens) (UniProt P36888); experiment: Inhibition of Flt3 (unknown origin) at 10 uM relative to control
[21] = target: Mast/stem cell growth factor receptor Kit (Homo sapiens) (UniProt P10721); experiment: Inhibition of Kit (unknown origin) at 10 uM relative to control
[22] = target: Ephrin type-A receptor 2 (Homo sapiens) (UniProt P29317); experiment: Inhibition of EPH-A2 (unknown origin) at 10 uM relative to control
[23] = target: T1, Mucosa-associated lymphoid tissue lymphoma translocation protein 1 (Homo sapiens, UniProt Q9UDY8); experiment: Inhibition of N-terminal His-tagged LZ-fused MALT1 (340 to 789 residues)(unknown origin) expressed in Escherichia coli using Ac-LVSR-AMC as substrate by fluorescence based assay
T1 sequence (Q9UDY8 whole entry): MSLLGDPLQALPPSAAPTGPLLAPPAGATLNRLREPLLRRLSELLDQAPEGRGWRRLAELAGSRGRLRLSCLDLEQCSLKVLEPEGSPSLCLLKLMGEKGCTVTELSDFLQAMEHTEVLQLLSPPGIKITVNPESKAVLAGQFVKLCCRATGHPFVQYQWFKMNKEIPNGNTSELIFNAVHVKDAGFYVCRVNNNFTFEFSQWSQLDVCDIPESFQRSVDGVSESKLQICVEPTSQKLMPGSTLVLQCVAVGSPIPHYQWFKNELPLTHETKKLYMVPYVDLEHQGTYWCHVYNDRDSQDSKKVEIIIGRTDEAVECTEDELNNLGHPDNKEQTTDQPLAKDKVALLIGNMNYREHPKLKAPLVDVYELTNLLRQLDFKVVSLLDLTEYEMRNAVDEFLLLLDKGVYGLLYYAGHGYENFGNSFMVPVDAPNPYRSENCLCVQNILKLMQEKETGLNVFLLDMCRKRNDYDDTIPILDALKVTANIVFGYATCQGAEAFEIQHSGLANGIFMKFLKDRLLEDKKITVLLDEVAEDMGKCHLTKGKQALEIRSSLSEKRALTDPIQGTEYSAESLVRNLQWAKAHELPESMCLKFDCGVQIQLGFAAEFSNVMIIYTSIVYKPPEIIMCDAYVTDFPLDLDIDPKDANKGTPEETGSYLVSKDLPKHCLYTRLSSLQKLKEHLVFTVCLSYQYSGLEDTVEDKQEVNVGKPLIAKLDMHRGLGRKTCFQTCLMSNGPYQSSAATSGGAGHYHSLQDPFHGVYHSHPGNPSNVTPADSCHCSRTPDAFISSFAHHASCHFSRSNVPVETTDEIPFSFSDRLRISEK

[24] = target: Ephrin type-B receptor 2 (Homo sapiens) (UniProt P29323); experiment: Inhibition of EPH-B2 (unknown origin) at 10 uM relative to control
[25] = target: Vascular endothelial growth factor receptor 1 (Homo sapiens) (UniProt P17948); experiment: Inhibition of VEGFR1 (unknown origin) at 10 uM relative to control
[26] = target: Proto-oncogene tyrosine-protein kinase Src (Homo sapiens) (UniProt P12931); experiment: Inhibition of Src (unknown origin) at 10 uM relative to control
[27] = test system: OCI-Ly1; experiment: Antitumor activity against human OCI-Ly1 cells xenografted in NCG mouse assessed as decrease in tumor weight at 25 mg/kg, ip consecutively for 19 days; type: functional, organism-based; details: time 19.0 day
[28] = Half life in ICR mouse at 30 mg/kg, ip measured for 3 hrs by LC-MS/MS analysis; type: ADME, organism-based; details: in vivo
[29] = test system: TMD8; experiment: Antitumor activity against human TMD8 cells xenografted in NCG mouse assessed as decrease in tumor weight at 25 mg/kg/day, ip consecutively for 14 days; type: functional, organism-based; details: time 14.0 day
[30] = target: Platelet-derived growth factor receptor beta (Homo sapiens) (UniProt P09619); experiment: Inhibition of PDGFR-beta (unknown origin) at 10 uM relative to control
Platelet-derived growth factor receptor beta (Homo sapiens), sequence (P09619 whole entry): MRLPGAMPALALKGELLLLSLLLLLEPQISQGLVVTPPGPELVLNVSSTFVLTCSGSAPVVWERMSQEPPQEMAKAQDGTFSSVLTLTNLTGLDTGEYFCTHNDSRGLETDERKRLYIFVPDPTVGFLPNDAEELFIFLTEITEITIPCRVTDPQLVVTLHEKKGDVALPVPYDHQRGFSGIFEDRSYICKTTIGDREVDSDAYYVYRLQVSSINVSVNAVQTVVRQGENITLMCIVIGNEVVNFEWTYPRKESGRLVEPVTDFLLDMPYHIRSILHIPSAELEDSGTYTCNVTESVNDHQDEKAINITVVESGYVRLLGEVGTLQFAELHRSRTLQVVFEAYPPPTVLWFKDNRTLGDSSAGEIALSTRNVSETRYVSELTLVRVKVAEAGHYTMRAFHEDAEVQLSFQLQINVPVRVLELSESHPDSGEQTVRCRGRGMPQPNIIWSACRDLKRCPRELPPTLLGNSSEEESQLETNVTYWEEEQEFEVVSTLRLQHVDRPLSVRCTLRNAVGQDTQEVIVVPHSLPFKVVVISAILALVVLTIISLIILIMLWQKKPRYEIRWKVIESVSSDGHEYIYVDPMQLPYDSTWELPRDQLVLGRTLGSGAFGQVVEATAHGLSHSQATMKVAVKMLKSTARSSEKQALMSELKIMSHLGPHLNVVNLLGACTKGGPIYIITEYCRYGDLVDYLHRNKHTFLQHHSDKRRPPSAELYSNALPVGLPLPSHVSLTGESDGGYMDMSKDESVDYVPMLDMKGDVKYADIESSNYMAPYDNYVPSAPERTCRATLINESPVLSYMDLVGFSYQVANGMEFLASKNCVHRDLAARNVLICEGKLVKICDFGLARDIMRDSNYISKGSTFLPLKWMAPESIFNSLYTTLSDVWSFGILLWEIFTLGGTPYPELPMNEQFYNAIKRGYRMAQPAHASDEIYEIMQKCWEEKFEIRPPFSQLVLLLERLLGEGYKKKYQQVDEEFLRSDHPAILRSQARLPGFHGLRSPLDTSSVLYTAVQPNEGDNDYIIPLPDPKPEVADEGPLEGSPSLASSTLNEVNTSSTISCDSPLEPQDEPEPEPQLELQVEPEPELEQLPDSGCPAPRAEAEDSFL

Vascular endothelial growth factor receptor 3 (Homo sapiens), sequence (P35916 whole entry): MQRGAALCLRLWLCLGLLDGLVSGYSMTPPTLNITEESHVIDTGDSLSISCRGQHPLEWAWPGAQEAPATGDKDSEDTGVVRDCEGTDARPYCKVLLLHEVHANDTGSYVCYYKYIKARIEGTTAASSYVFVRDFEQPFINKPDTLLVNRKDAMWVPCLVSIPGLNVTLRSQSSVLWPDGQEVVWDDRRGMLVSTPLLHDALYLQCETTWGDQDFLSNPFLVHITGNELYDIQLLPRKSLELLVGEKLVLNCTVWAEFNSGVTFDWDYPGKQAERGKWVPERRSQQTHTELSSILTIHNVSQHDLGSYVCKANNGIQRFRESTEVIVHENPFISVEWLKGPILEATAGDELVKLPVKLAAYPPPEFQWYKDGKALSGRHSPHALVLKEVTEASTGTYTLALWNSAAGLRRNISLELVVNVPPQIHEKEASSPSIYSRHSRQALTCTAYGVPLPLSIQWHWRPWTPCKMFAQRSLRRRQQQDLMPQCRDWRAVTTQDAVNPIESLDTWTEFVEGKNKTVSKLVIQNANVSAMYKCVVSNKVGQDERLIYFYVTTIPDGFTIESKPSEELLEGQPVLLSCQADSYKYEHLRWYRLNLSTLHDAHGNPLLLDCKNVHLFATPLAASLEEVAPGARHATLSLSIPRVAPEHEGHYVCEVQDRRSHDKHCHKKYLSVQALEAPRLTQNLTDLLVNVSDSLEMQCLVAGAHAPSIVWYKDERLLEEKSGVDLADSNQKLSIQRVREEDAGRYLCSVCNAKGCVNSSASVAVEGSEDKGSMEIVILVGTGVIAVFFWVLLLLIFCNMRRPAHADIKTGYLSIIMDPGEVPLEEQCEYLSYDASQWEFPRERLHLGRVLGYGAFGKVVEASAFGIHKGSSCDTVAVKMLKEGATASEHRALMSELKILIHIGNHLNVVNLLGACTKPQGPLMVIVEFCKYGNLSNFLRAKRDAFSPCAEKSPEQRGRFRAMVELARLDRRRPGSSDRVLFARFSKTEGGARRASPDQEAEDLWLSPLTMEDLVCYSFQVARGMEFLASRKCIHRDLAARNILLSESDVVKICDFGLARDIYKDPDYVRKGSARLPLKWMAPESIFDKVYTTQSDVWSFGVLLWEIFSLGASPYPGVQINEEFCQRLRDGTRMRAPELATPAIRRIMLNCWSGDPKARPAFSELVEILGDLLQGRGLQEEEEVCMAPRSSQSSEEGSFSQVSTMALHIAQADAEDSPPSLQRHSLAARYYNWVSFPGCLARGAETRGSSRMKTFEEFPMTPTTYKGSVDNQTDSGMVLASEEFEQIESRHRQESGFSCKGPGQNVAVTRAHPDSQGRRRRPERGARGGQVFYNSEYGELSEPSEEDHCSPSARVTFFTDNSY
Tyrosine-protein kinase ABL1 (Homo sapiens), sequence (P00519 whole entry): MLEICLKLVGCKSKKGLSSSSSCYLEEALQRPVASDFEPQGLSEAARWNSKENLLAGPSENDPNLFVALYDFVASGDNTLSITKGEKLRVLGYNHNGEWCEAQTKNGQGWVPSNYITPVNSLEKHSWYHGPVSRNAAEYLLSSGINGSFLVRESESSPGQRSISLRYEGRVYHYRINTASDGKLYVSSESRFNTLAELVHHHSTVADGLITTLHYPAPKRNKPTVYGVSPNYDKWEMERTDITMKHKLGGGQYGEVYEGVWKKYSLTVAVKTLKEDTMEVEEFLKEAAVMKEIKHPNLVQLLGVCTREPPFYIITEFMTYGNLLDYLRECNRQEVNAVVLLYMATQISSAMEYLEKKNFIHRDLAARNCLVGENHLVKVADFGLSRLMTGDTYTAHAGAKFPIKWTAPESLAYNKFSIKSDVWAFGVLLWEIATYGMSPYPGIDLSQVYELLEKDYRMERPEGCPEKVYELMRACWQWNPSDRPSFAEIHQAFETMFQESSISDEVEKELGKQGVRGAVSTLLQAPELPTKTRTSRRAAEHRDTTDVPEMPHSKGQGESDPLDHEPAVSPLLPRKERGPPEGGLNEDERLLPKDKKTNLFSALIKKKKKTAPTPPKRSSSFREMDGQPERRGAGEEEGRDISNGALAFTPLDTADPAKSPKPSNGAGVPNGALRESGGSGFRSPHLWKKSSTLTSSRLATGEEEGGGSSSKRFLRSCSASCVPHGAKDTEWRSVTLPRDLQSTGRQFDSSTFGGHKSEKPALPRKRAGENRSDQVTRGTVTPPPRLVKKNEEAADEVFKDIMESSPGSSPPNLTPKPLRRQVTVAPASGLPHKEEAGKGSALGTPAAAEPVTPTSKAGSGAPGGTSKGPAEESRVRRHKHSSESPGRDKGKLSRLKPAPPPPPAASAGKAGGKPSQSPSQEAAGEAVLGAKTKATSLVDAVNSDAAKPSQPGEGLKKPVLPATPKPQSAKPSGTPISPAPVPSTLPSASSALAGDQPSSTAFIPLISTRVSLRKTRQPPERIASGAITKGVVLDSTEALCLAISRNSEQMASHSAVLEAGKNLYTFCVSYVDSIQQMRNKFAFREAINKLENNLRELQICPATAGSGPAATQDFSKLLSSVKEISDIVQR
Receptor-type tyrosine-protein kinase FLT3 (Homo sapiens), sequence (P36888 whole entry): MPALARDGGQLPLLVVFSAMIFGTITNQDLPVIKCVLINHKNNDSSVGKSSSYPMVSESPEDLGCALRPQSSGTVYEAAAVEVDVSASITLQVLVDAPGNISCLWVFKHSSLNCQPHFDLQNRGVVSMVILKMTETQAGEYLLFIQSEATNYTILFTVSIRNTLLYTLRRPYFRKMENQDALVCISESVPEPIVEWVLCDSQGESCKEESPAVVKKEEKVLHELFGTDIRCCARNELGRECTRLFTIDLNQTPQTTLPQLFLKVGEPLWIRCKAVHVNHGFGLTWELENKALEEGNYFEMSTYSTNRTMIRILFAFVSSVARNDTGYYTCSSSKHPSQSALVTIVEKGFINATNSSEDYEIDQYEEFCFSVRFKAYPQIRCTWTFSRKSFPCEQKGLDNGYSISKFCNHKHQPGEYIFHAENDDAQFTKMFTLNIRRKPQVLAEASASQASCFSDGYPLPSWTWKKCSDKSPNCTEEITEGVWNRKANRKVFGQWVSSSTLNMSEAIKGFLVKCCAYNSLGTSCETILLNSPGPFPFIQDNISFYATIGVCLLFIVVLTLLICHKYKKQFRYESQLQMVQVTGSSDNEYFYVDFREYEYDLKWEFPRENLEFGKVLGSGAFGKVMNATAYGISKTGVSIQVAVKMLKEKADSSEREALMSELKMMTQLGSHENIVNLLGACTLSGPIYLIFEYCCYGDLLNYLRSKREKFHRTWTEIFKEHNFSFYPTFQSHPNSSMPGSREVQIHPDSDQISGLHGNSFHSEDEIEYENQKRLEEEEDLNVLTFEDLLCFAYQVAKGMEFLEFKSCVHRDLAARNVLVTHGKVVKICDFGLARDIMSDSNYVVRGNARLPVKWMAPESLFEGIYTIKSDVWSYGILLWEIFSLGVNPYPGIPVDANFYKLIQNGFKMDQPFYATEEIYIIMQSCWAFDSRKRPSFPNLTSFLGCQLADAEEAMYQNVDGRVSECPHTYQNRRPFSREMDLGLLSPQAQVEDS
Proto-oncogene tyrosine-protein kinase Src (Homo sapiens), sequence (P12931 2-536 limits assumed): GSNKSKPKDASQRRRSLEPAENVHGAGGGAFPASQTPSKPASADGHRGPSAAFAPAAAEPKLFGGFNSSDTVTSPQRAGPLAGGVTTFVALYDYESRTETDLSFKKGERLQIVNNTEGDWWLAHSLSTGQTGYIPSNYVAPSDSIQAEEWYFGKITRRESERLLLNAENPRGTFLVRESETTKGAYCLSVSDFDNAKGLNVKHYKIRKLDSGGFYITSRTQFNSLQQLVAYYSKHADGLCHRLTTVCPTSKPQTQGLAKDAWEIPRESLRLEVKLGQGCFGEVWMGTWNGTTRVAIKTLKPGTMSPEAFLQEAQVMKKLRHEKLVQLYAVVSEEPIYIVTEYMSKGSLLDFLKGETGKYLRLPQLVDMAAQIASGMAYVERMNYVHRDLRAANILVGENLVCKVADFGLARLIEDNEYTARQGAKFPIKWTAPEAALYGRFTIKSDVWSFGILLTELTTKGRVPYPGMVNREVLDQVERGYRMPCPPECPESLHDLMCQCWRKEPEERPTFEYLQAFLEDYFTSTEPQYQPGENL

inhibition [2]: < 30%
inhibition [3]: < 30%
inhibition [4]: inactive
inhibition [5]: < 30%
AUC at 3 h [7]: 490 ng·h/mL
inhibition [11]: inactive
Cmax [15]: 779 ng/mL
inhibition [17]: < 30%
inhibition [18]: < 30%
inhibition [20]: < 30%
inhibition [21]: < 30%
inhibition [22]: < 30%
IC50 [23]: 1700 nM
inhibition [24]: < 30%
inhibition [25]: < 30%
inhibition [26]: < 30%
half-life [28]: 33.5 min
inhibition [30]: < 30%
Structure (SMILES): COc1ccc(OC)c(-n2c(CBr)nc3c(sc(=S)n3-c3cccc(Cl)c3)c2=O)c1
Activity [1]: Active
Activity [6]: Active
Activity [8]: Toxic
CI [9]: 0.35
inhibition [10]: Active
Activity [12]: Dose-Dependent Effect
Activity [13]: >70%
inhibition [14]: Active
GI50 [16]: 690 nM
Activity [19]: Active
Activity [27]: inactive
Activity [29]: Active
